Reference: ChEMBL document CHEMBL2010796, “Systematic structure modifications of imidazo[1,2-a]pyrimidine to reduce metabolism mediated by aldehyde oxidase (AO)” (J Med Chem, 2011)
The source made the active and inactive calls. The rule behind the calls is not given here.

Tests used:
[1] = target: T1, Androgen receptor (Homo sapiens) (UniProt P10275); test: Antagonist activity at human androgen receptor expressed in LNAR cells assessed as inhibition of […]-induced luciferase activity by reporter gene assay; format: functional, cell-based
T1 sequence (whole entry): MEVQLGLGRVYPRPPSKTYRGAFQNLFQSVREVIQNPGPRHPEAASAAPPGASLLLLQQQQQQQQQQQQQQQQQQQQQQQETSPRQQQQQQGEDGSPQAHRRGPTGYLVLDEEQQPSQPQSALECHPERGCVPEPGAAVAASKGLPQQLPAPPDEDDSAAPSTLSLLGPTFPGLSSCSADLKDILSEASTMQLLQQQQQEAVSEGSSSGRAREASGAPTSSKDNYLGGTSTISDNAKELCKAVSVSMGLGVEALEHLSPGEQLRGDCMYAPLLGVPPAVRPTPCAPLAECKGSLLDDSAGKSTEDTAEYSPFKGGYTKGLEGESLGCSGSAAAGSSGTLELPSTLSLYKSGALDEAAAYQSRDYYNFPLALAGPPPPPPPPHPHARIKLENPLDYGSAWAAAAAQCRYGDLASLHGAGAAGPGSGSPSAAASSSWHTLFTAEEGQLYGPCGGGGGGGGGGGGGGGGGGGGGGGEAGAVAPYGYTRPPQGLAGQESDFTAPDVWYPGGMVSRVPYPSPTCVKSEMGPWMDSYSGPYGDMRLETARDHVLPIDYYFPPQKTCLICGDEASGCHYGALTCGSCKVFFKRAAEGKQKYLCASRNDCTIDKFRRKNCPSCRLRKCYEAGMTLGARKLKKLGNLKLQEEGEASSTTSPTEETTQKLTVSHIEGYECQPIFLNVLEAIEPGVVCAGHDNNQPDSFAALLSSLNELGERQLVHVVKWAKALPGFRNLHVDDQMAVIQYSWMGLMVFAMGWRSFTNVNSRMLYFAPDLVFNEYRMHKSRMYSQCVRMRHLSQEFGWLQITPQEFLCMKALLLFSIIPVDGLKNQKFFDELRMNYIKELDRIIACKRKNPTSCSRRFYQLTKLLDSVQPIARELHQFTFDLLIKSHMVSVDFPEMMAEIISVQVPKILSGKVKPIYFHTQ

[2] = Kinetic solubility in water; format: physicochemical; conditions: read-out: Kinetic_solubility
[3] = Drug metabolism in human liver microsomes assessed as CYP450-mediated oxidation; format: ADME, Microsome
[4] = Oral bioavailability in rat; format: ADME, organism-based; conditions: in vivo
[5] = Plasma clearance in rat; format: ADME, organism-based
[6] = Half life in rat; format: ADME, organism-based; conditions: in vivo

Question: For `CC1(C)[C@H](NC(=O)c2cnc3ncccn23)C(C)(C)[C@H]1Oc1ccc(C#N)c(C#N)c1`, which inhibition [1] is on record?
Answer: Active

Question: For `Cc1nc(O[C@H]2C(C)(C)[C@H](NC(=O)c3cnc4ccccn34)C2(C)C)ccc1C#N`, which solubility kinetic [2] is on record?
Answer: < 0.4 µM

Question: And the Drug metabolism [3]?
Answer: Active

Question: With `COc1nc(O[C@H]2C(C)(C)[C@H](NC(=O)c3cnc4ncccn34)C2(C)C)ccc1C#N` as the compound, how does the inhibition [1] read?
Answer: Active

Question: Which bioavailability [4] does the source give for `Cc1nc(O[C@H]2C(C)(C)[C@H](NC(=O)c3cnc4ncccn34)C2(C)C)ccc1C#N` here?
Answer: 31%

Question: What about the clearance [5] of the same compound?
Answer: 11.6 mL/min/kg

Question: And the half-life [6]?
Answer: 3.6 h

Question: Which inhibition [1] does the source give for `CC1(C)[C@H](NC(=O)c2cnc3ncccn23)C(C)(C)[C@H]1Oc1ccc(C#N)c(Cl)c1` here?
Answer: Active
